Experimental data reported in paper PMC8861431, “Tissue Pharmacokinetic Properties and Bystander Potential of Hypoxia-Activated Prodrug CP-506 by Agent-Based Modelling” (Frontiers in Pharmacology, 2022).
Values joined by “and” are separate entries in the source; they are usually repeats but may differ in a detail not shown here. Equal values may be shown once. Read-outs that look alike come from different tables or passages of the source.

Tests used:
[1] = test system: PORko-G and POR-R spheroids / spheroid co-cultures; assay: Spheroid clonogenic survival assay (with spheroid ABM fit); type: cell-based, human; conditions: for k d S: kill probability rate constant in spheroid cultures: fitted by spheroid ABM to clonogenic survival under anoxia, set to zero for the prodrug, same kd assumed for metabolites
Procedure: Spheroid cultures were established by seeding 3 x 10^3 cells with 100 µl medium into ultra-low attachment, round bottom 96-well plates (Corning Inc, Corning, NY). Plates were briefly centrifuged (200 g, 5 min) to facilitate cell aggregation and grown in a standard incubator (37°C, 21% O2, 5% CO2) for 4 days before experiments. The culture medium was then aspirated, and the established spheroids taken into a H2/Pd-catalyst anaerobic chamber. Spheroids were washed three times with anoxia pre-equilibrated medium and left to settle for 1 h in a humidified 37°C incubator. Spheroids were removed from the anaerobic chamber after a 4 h drug exposure and washed three times with fresh culture medium. The growth of representative spheroids was monitored for 10 days using a published method of image analysis for volume determination ([Mao et al., 2018]). The remainder were enzymatically dissociated and plated at serial dilutions in 6-well plates containing 2 µM puromycin or 1 mg/ml geneticin for positive selection of POR-R and PORko-G cells, respectively. Colonies were visualized after 10 days of drug-free proliferation by staining with methylene blue (2 g/L in 50% aqueous ethanol) for 30 min. The number of colonies with at least 50 cells was manually counted to determine the plating efficiency. The surviving fraction was determined as the ratio of the plating efficiency of treated cells to that of the controls.
The spheroid ABM is described in further detail elsewhere ([Hong et al., 2018b]; [Mao et al., 2018]). The model employs two 3D grids and two solvers, a coarse grid represents the culture medium and is embedded with a much finer grid that represents the spheroid in a small cubic region at the bottom of the well. The spheroid grows in a specified volume and depth of unstirred medium containing dissolved oxygen. The geometry of the model is lattice-based, in which cells occupy cubic sites on a regular 3D lattice and grow in volume at a rate dependent on the local oxygen concentration. Autonomous cell mobility and cell-cell forces are not simulated. Cell motion occurs only as a result of cell division. Cells divide when the volume reaches a pre-set value (Vdiv) and the resultant daughter cell occupies an adjacent empty lattice site. […] The oxygen concentration at the air-medium boundary is defined by the gas phase of the culture environment. […] When oxygen concentrations fall below a critical level (<0.15 µM), cells are tagged to die and cytolysis occurs after a further 24 h leading to the central necrosis observed in in vitro spheroids. Spheroid ABM simulations were performed on a desktop Windows PC (Intel core I7 processor) from a Qt (Qt Company, https://www.qt.io/) graphical user interface passing parameters to a DLL built with Fortran95. The solution of the coarser grid provides the boundary conditions for the solution of the intracellular and extracellular concentrations within the spheroid lattice. Oxygen and drug are transported by diffusion from the boundary into the spheroid interior through the intercellular space in parallel with their uptake into cells. The model allows specification of two mass transfer constants to characterise the uptake (Kin) and efflux (Kout) rates for each compound. Prodrug metabolism is restricted to the intracellular compartment and dependent on the local oxygen concentration. […]

[2] = ref Van Der Wiel et al., 2021; cited from earlier work
[3] = test system: POR-R cell line (POR-overexpressing HCT-116); assay: Anti-proliferative IC50 assay (SRB); type: cell-based, human; conditions: for IC50: Homo sapiens, HCT-116, 4 h exposure
Description: (§1) The HCT-116 cell line was purchased from the American Type Culture Collection (Manassas, VA). A POR-overexpressing clone (POR-R) was generated by transfecting the parental cell line with a pBRP expression vector encoding an N-terminal truncated soluble version of the human POR gene ([Foehrenbacher et al., 2013a]; [Guise et al., 2020]). Ectopic expression is driven by the human cytomegalovirus (CMV) major immediate-early promoter. Downstream of POR is a human elongation factor-1 alpha (EF-1 alpha) promoter, which drives expression of mRuby and the puromycin resistance gene pac (puromycin N-acetyltransferase). A POR-null clone (PORG-ko) was generated as previously described ([Su et al., 2013]). POR-null clones were then transfected with a pEGFP-N1 plasmid encoding enhanced green fluorescent protein (EGFP) and geneticin resistance to permit identification upon co-culture ([Hong et al., 2018b]). Cell lines were maintained by weekly subculture in T-flasks containing alpha minimal essential medium (αMEM) with 5% foetal bovine serum (FBS) for a maximum of 24 passages or 90 days (whichever came first). The culture medium was further supplemented with 1 mg/ml geneticin or 2 µM puromycin for the routine maintenance of the POR-null and POR-overexpressing clones respectively. All cultures were re-established from STR-authenticated, mycoplasma negative frozen stocks.
(§2) Cells (700–1,000 per well) were seeded with 100 µl culture medium into 96-well plates and left to attach for 2 h in a humidified 37°C incubator. Compounds were prepared in culture medium and serially diluted (1:3) in the well volume. Plates were returned to a humidified 37°C incubator for the duration of the drug exposure (4 h). Aerobic experiments were performed under standard tissue culture conditions (21% O2), and the anoxic experiments were performed in parallel in a 5% H2/Pd catalyst anaerobic chamber (Shellab Bactron, Sheldon manufacturing Inc., Cornelius, OR) using pre-equilibrated media and plasticware. All anoxia experiments were conducted using a catalyst-scrubbed anaerobic chamber, unless otherwise specified, with gas oxygen measurements of <1 ppm O2. Cells were then washed three times and left to grow for 96 h before cell density determination using a sulforhodamine B (SRB) assay ([Vichai and Kirtikara, 2006]). To this end, the cells were fixed by layering 50 µl of trichloroacetic acid (40% w/v in MilliQ water) on top of the culture media (150 µl) in each well for 1 h at 4°C. Plates were rinsed under running tap water and stained with 50 µl of SRB (0.4% w/v in MilliQ water containing 1% v/v acetic acid) for 30 min at room temperature. Plates were rapidly destained by rinsing three times in tap water containing 1% (v/v) acetic acid. The stain was solubilized by adding 100 µl of 10 mM unbuffered Tris base to each well with gentle rocking for 1 h. Plates were read on a Biotek ELx808 Absorbance Microplate Reader at 490 nm using KC4 software. The IC50 value (concentration required to reduce staining to 50% of the untreated control on the same plate) for each compound was determined by interpolation using a 4-parameter logistic regression model.

[4] = test system: HCT-116 WT cell line; assay: Anti-proliferative IC50 assay (SRB); type: cell-based, human; conditions: for IC50: Homo sapiens, 4 h exposure
Description: as §1, §2

[5] = anoxic <1 ppm O2, 96 h drug-free proliferation, read-out: Anoxic IC50 (anti-proliferative)
[6] = normoxic 21% O2, 96 h drug-free proliferation, read-out: Aerobic IC50 (anti-proliferative)

## CCN1CCN(C(=O)c2cc(N(CCBr)CCOS(C)(=O)=O)c(S(C)(=O)=O)cc2[N+](=O)[O-])CC1 [CP-506, 2-[(2-bromoethyl)-5-[(4-ethyl-1-piperazinyl)carbonyl]-2-(methylsulfonyl)-4-nitroanilino]ethyl methanesulfonate]
[1]; clonogenic endpoint, 4 h exposure, anoxia
  Differential in anoxic sensitivity between PORko-G and POR-R spheroids: 22 fold and 20 fold
[1]
  k d S: kill probability rate constant in spheroid cultures: 0
[2]
  O2 concentration above which prodrug activation and cytotoxicity are completely inhibited: above 1 µM O2
[3]; [5]
  IC50: 2.5 ± 0.3 µM
[3]; [6]
  IC50: 120 ± 13 µM
[3]; anti-proliferative assay
  Fold lower IC50 under anoxic vs aerobic conditions: 48.6 fold
[4]; [5]
  IC50: 12.8 ± 3.7 µM
[4]; [6]
  IC50: 257 ± 37 µM
[4]; anti-proliferative assay
  Fold lower IC50 under anoxic vs aerobic conditions: 20.1 fold

## CCN1CCN(C(=O)c2cc(N(CCBr)CCOS(C)(=O)=O)c(S(C)(=O)=O)cc2NO)CC1 [CP-506H, 2-((2-bromoethyl)(5-(4-ethylpiperazine-1-carbonyl)-4-(hydroxyamino)-2-(methylsulfonyl)phenyl)amino)ethyl methanesulfonate]
[1]
  k d S: kill probability rate constant in spheroid cultures: 0.0256

## CCN1CCN(C(=O)c2cc(N(CCBr)CCOS(C)(=O)=O)c(S(C)(=O)=O)cc2N)CC1 [CP-506M, 2-((4-amino-5-(4-ethylpiperazine-1-carbonyl)-2-(methylsulfonyl)phenyl)(2-bromoethyl)amino)ethyl methanesulfonate]
[1]
  k d S: kill probability rate constant in spheroid cultures: 0.0256

## CCN1CCN(C(=O)c2cc(N(CCCl)CCCl)c(S(C)(=O)=O)cc2N)CC1 [CP-506M-Cl2, (2-Amino-5-(bis(2-chloroethyl)amino)-4-(methylsulfonyl)phenyl)(4-ethylpiperazin-1-yl)methanone]
[1]
  k d S: kill probability rate constant in spheroid cultures: 0.0256
